Measurements published in the NIST ThermoML archive (doi:10.1016/j.tca.2018.01.023).
Numbers after ± are expanded uncertainties.

Key:
[1] = Crystal; for molar entropy: 101.33 kPa, Small sample (50 mg) DSC
[2] = Molar enthalpy of transition or fusion; conditions: Crystal; DSC

[Ca+2].[O]=[Mo](=[O])([O-])[O-] [calcium molybdate(VI)]
[1]
Conditions | Normal melting temperature [°C] | molar entropy [J/K/mol]
298.15 K | – | 122 ± 7.8
310 K | – | 126.5 ± 8.1
315 K | – | 128.4 ± 8.2
320 K | – | 130.3 ± 8.3
325 K | – | 132.1 ± 8.4
330 K | – | 133.9 ± 8.5
335 K | – | 135.7 ± 8.6
340 K | – | 137.5 ± 8.8
345 K | – | 139.3 ± 8.9
350 K | – | 141 ± 9
355 K | – | 142.8 ± 9.1
360 K | – | 144.5 ± 9.2
365 K | – | 146.2 ± 9.3
370 K | – | 147.9 ± 9.4
375 K | – | 149.6 ± 9.5
380 K | – | 151.2 ± 9.6
385 K | – | 152.9 ± 9.7
390 K | – | 154.5 ± 9.8
395 K | – | 156.1 ± 9.9
400 K | – | 157.7 ± 10
410 K | – | 160.9 ± 10
420 K | – | 164 ± 10
430 K | – | 167.1 ± 11
440 K | – | 170.1 ± 11
450 K | – | 173.1 ± 11
460 K | – | 176 ± 11
470 K | – | 178.8 ± 11
480 K | – | 181.7 ± 12
490 K | – | 184.5 ± 12
500 K | – | 187.2 ± 12
510 K | – | 189.9 ± 12
520 K | – | 192.6 ± 12
530 K | – | 195.2 ± 12
540 K | – | 197.8 ± 13
550 K | – | 200.3 ± 13
560 K | – | 202.8 ± 13
570 K | – | 205.3 ± 13
580 K | – | 207.7 ± 13
590 K | – | 210.1 ± 13
600 K | – | 212.5 ± 14
620 K | – | 217.2 ± 14
640 K | – | 221.7 ± 14
660 K | – | 226.1 ± 14
680 K | – | 230.4 ± 15
700 K | – | 234.6 ± 15
720 K | – | 238.7 ± 15
740 K | – | 242.8 ± 16
760 K | – | 246.7 ± 16
766 K | – | 247.8 ± 16
DTA | 1477 ± 8 | –

Conditions | Molar enthalpy of transition or fusion [kcal/mol]
[2] | 24.4 ± 2.87
